Measurements from patent US20020137929A1, “1 - (3-heterocyclylphenyl) isothiourea, -isourea, -guanidine and -amidine herbicidal agents” (Intellectual Property Department, BASF Aktiengesellschaft, priority 1998, published 2002).

Legend:
ORYSAT (Rice, Tebonnet) [1] = assay: Postemergence herbicidal evaluation; assay type: in vivo, Oryza sativa, (L.) Tebonnet
How it was run: (§1)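 Two-week-old seedlings sprayed with compound in 50/50 acetone/water plus 0.5% TWEEN 20, at about 0.0156 to 0.500 kg/ha, nozzle at 40 psi. Kept in greenhouse; rated visually 4-5 weeks after treatment on a 0-9 scale versus control, repeat tests averaged.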

GALAP (Galium) = assay: Postemergence herbicidal evaluation; assay type: in vivo, Galium aparine
How it was run: as §1

SETVI (Foxtail, Green) = assay: Preemergence herbicidal evaluation; assay type: in vivo, Setaria viridis; details: rated 4-5 weeks after treatment
How it was run: (§2)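 Preemergence soil application of compound, sprayed in aqueous acetone at rates equivalent to about 0.0156 to 0.500 kg per hectare onto freshly sown cups. Plant response was judged by eye on a 0-9 scale four to five weeks later.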

ORYSAT (Rice, Tebonnet) [2] = assay: Preemergence herbicidal evaluation; assay type: in vivo, Oryza sativa, (L.) Tebonnet; details: rated 4-5 weeks after treatment
How it was run: as §2

[3] = system: SAGPY (Arrowhead (Pygmaea)); assay: Postemergence weed control under flooded paddy conditions; assay type: in vivo, Sagittaria pygmaea; details: postemergence weeds, 3-4 weeks after treatment
How it was run: (§3)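 Containers holding 3–5 cm weeds and rice at 1.5–2.5 leaves are flooded to 1.5–3 cm above soil. Compound in 50/50 v/v aqueous/acetone is then added directly to the water, about 0.0313–0.500 kg/ha. Plants are kept in the greenhouse and rated 0–9 visually at 3–4 weeks.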

CASOB (Sicklepod) = assay: Postemergence herbicidal evaluation; assay type: in vivo, Cassia obtusifolia
How it was run: as §1

CYPIR (Rice Flatsedge) = assay: Postemergence weed control under flooded paddy conditions; assay type: in vivo, Cyperus iria; details: postemergence weeds, 3-4 weeks after treatment
How it was run: as §3

CYPSE (Flatsedge) [4] = assay: Preemergence weed control under flooded paddy conditions; assay type: in vivo, Cyperus serotinus; details: rated 3-4 weeks after treatment
How it was run: (§4)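 Values are visual 0-9 scores against a control for a preemergence application into paddy flood water at about 0.0313 to 0.500 kg/ha. Greenhouse duration was three to four weeks.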

AMBEL (Ragweed, Common) = assay: Preemergence herbicidal evaluation; assay type: in vivo, Ambrosia artemisifolia; details: rated 4-5 weeks after treatment
How it was run: as §2

[5] = system: GLXMAW (Soybean, Williams); assay: Preemergence herbicidal evaluation; assay type: in vivo, Glycine max, (L.) Merr. cv Williams; details: rated 4-5 weeks after treatment
How it was run: as §2

CYPSE (Flatsedge) [6] = assay: Postemergence weed control under flooded paddy conditions; assay type: in vivo, Cyperus serotinus; details: postemergence weeds, 3-4 weeks after treatment
How it was run: as §3

MOOVA (Monochoria) = assay: Preemergence weed control under flooded paddy conditions; assay type: in vivo, Monochoria vaginalis; details: rated 3-4 weeks after treatment
How it was run: as §4

ZEAMX (Corn, Field) = assay: Postemergence herbicidal evaluation; assay type: in vivo, Zea mays
How it was run: as §1

[7] = system: CHEAL (Lambsquarters, Common); assay: Postemergence herbicidal evaluation; assay type: in vivo, Chenopodium album
How it was run: as §1

CCOC(=O)CN1C(=O)C(CC(=O)OCc2ccccc2)OC1=Nc1cc(-n2c(=O)cc(C(F)(F)F)n(C)c2=O)c(F)cc1Cl (stereo not drawn) [Compound 40, 2-{{2-Chloro-5-[3,6-dihydro-3-methyl-2,6-dioxo-4-(trifluoromethyl)-1(2H)-pyrimidinyl]-4-fluorophenyl}imino}-4-oxo-3,5-oxazolidinediacetic acid, 5-benzyl ethyl ester]
Postemergence herbicidal rating ORYSAT (ORYSAT (Rice, Tebonnet) [1]; Rate 0.0158 kg/ha): 2.5 | Postemergence herbicidal rating ORYSAT (ORYSAT (Rice, Tebonnet) [1]; Rate 0.0315 kg/ha): 3.0 | Postemergence herbicidal rating ORYSAT (ORYSAT (Rice, Tebonnet) [1]; Rate 0.0630 kg/ha): 3.0 | Postemergence herbicidal rating GALAP (GALAP (Galium); Rate 0.0158 kg/ha): 1.0 | Postemergence herbicidal rating GALAP (GALAP (Galium); Rate 0.0315 kg/ha): 2.0 | Postemergence herbicidal rating GALAP (GALAP (Galium); Rate 0.0630 kg/ha): 4.0 | Preemergence herbicidal rating SETVI (SETVI (Foxtail, Green); rate 0.0313 kg/ha): 0.0 | Preemergence herbicidal rating SETVI (SETVI (Foxtail, Green); rate 0.0625 kg/ha): 0.0 | Preemergence herbicidal rating SETVI (SETVI (Foxtail, Green); rate 0.1250 kg/ha): 6.0 | Preemergence herbicidal rating SETVI (SETVI (Foxtail, Green); rate 0.2500 kg/ha): 6.0 | Preemergence herbicidal rating ORYSAT (ORYSAT (Rice, Tebonnet) [2]; rate 0.0313 kg/ha): 0.0 | Preemergence herbicidal rating ORYSAT (ORYSAT (Rice, Tebonnet) [2]; rate 0.0625 kg/ha): 0.0 | Preemergence herbicidal rating ORYSAT (ORYSAT (Rice, Tebonnet) [2]; rate 0.1250 kg/ha): 0.0 | Preemergence herbicidal rating ORYSAT (ORYSAT (Rice, Tebonnet) [2]; rate 0.2500 kg/ha): 1.0 | Herbicidal rating SAGPY ([3]; rate 0.0313 kg/ha): 0.0 | Herbicidal rating SAGPY ([3]; rate 0.0625 kg/ha): 0.0 | Herbicidal rating SAGPY ([3]; rate 0.1250 kg/ha): 0.0 | Herbicidal rating SAGPY ([3]; rate 0.2500 kg/ha): 0.0 | Postemergence herbicidal rating CASOB (CASOB (Sicklepod); Rate 0.0158 kg/ha): 0.0 | Postemergence herbicidal rating CASOB (CASOB (Sicklepod); Rate 0.0315 kg/ha): 2.0 | Postemergence herbicidal rating CASOB (CASOB (Sicklepod); Rate 0.0630 kg/ha): 5.0 | Herbicidal rating CYPIR (CYPIR (Rice Flatsedge); rate 0.0313 kg/ha): 0.0 | Herbicidal rating CYPIR (CYPIR (Rice Flatsedge); rate 0.0625 kg/ha): 0.0 | Herbicidal rating CYPIR (CYPIR (Rice Flatsedge); rate 0.1250 kg/ha): 0.0 | Herbicidal rating CYPIR (CYPIR (Rice Flatsedge); rate 0.2500 kg/ha): 0.0 | Herbicidal rating CYPSE (CYPSE (Flatsedge) [4]; 0.0313 kg/ha): 0.0 | Herbicidal rating CYPSE (CYPSE (Flatsedge) [4]; 0.0625 kg/ha): 0.0 | Herbicidal rating CYPSE (CYPSE (Flatsedge) [4]; 0.1250 kg/ha): 0.0 | Herbicidal rating CYPSE (CYPSE (Flatsedge) [4]; 0.2500 kg/ha): 6.0 | Preemergence herbicidal rating AMBEL (AMBEL (Ragweed, Common); rate 0.0313 kg/ha): 0.0 | Preemergence herbicidal rating AMBEL (AMBEL (Ragweed, Common); rate 0.0625 kg/ha): 2.0 | Preemergence herbicidal rating AMBEL (AMBEL (Ragweed, Common); rate 0.1250 kg/ha): 6.0 | Preemergence herbicidal rating AMBEL (AMBEL (Ragweed, Common); rate 0.2500 kg/ha): 6.0 | Preemergence herbicidal rating GLXMAW ([5]; rate 0.0313 kg/ha): 0.0 | Preemergence herbicidal rating GLXMAW ([5]; rate 0.0625 kg/ha): 0.0 | Preemergence herbicidal rating GLXMAW ([5]; rate 0.1250 kg/ha): 1.0 | Preemergence herbicidal rating GLXMAW ([5]; rate 0.2500 kg/ha): 3.0 | Herbicidal rating CYPSE (CYPSE (Flatsedge) [6]; rate 0.0313 kg/ha): 0.0 | Herbicidal rating CYPSE (CYPSE (Flatsedge) [6]; rate 0.0625 kg/ha): 0.0 | Herbicidal rating CYPSE (CYPSE (Flatsedge) [6]; rate 0.1250 kg/ha): 0.0 | Herbicidal rating CYPSE (CYPSE (Flatsedge) [6]; rate 0.2500 kg/ha): 6.0 | Herbicidal rating MOOVA (MOOVA (Monochoria); 0.0313 kg/ha): 9.0 | Herbicidal rating MOOVA (MOOVA (Monochoria); 0.0625 kg/ha): 9.0 | Herbicidal rating MOOVA (MOOVA (Monochoria); 0.1250 kg/ha): 9.0 | Herbicidal rating MOOVA (MOOVA (Monochoria); 0.2500 kg/ha): 9.0 | Postemergence herbicidal rating ZEAMX (ZEAMX (Corn, Field); Rate 0.0158 kg/ha): 7.0 | Postemergence herbicidal rating ZEAMX (ZEAMX (Corn, Field); Rate 0.0315 kg/ha): 7.5 | Postemergence herbicidal rating ZEAMX (ZEAMX (Corn, Field); Rate 0.0630 kg/ha): 8.5 | Postemergence herbicidal rating CHEAL ([7]; Rate 0.0158 kg/ha): 2.0 | Postemergence herbicidal rating CHEAL ([7]; Rate 0.0315 kg/ha): 7.0 | Postemergence herbicidal rating CHEAL ([7]; Rate 0.0630 kg/ha): 9.0
